{"source": "patent US6548270B1", "about": "“DNA encoding human acid-sensing ion channel BNaC4 (ASIC4)” (Ortho-McNeil Pharmaceutical, Inc., priority 2000, dated 2003)", "origin": "cited, not measured here", "key": {"ASIC2a": {"system": "ASIC2a", "conditions": "ASIC2a gain of function mutant channels; cited from earlier work"}, "MDEG1 + MDEG2": {"molecular_target": "T1, MDEG1 + MDEG2 (Rattus norvegicus, UniProt Q62962)", "T1 sequence (Q62962 1-512)": "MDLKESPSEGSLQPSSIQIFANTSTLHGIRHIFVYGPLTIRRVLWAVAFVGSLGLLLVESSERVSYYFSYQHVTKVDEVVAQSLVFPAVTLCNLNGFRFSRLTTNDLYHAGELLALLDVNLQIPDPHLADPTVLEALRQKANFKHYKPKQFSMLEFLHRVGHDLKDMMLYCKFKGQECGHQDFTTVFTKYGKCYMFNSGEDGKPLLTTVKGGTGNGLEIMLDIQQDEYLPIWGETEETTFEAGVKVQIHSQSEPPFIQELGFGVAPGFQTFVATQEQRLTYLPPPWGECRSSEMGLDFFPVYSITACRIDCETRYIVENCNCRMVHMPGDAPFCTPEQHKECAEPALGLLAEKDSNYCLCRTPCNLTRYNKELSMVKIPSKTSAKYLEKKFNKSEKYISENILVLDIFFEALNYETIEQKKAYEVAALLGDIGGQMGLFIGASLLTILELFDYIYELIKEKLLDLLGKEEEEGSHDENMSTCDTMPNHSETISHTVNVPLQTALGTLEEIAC", "T1 sequence (Q62962 1-563 isoform Q62962-2)": "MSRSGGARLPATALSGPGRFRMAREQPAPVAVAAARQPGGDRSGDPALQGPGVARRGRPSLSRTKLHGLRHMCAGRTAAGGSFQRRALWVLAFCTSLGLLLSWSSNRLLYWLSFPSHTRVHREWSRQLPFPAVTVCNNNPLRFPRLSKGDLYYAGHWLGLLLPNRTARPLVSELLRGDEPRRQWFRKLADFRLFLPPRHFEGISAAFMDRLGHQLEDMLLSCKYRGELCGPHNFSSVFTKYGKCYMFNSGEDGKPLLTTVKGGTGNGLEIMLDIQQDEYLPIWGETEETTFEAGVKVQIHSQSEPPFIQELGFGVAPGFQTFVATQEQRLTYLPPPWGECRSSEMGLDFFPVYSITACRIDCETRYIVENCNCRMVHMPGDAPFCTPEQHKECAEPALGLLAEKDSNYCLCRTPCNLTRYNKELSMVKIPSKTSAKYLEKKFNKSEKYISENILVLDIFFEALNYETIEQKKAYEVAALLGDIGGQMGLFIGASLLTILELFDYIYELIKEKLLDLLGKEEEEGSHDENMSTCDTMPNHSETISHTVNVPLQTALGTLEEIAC", "conditions": "500 μM amiloride; cited from earlier work"}, "hASIC3": {"molecular_target": "T2, hASIC3 (Homo sapiens, UniProt Q9UHC3)", "T2 sequence (Q9UHC3 1-531)": "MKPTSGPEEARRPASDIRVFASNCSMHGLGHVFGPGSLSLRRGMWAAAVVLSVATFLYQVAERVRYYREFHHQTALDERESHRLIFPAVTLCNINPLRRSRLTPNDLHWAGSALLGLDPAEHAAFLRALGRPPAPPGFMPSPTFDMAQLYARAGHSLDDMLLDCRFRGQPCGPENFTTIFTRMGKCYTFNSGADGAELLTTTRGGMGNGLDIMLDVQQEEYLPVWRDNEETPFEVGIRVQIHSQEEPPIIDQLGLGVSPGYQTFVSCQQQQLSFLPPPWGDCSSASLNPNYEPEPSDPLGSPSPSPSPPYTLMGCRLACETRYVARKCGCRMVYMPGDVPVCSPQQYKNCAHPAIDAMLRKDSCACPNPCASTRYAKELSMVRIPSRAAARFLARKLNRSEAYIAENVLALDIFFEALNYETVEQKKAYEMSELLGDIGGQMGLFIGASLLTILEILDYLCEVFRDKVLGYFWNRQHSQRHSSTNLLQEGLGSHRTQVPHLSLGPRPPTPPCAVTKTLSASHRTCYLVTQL", "conditions": "100 μM amiloride, Seguela and Babinski, 1999; cited from earlier work"}}, "data": [{"molecule": "N=C(N)NC(=O)c1nc(Cl)c(N)nc1N", "note": "[amiloride]", "values": [{"measurement": "Amiloride sensitivity (block of channels)", "setting": "ASIC2a", "result": "Amiloride blocked gain of function"}, {"measurement": "Amiloride sensitivity (block)", "setting": "MDEG1 + MDEG2", "result": "MDEG1 + MDEG2 completely"}, {"measurement": "decrease of sustained current", "setting": "hASIC3", "result": "sustained current by ˜30%; fast"}]}]}
